In EP4745137A1 (Gluetacs Therapeutics (Shanghai) Co., Ltd., priority 2023, dated 2025):

Key:
Assay type in all cases: cell-based
Details in all cases: 24 hours of compound treatment
[1] = target: T1, IKZF1 (Homo sapiens, UniProt Q13422+Q96SW2); assay: Western-blot assay of substrate protein degradation in hPBMCs, IKZF1
T1 construct: endogenous in cells; host or cells: hPBMCs (Milecell Biotechnologies)
Description: (§1) After 24 hours of compounds treatment, cells were harvested and lysed in RIPA protein lysate containing protease inhibitors on ice for 30 min, followed by centrifugation. The supernatant was aspirated as the extracted total cell protein. The protein concentration of the supernatant was determined using the conventional BCA (Bicinchoninic Acid) assay. • (2) To the collected supernatant, 5X SDS sample loading buffer was added, followed by denaturation at 95°C for 5 minutes. The denatured samples were then separated by SDS-PAGE electrophoresis on a polyacrylamide gel, transferred onto a nitrocellulose membrane (0.45 µm NC membrane), blocked with blocking buffer at room temperature for 1 hour, and subjected to antibody incubation and development procedures according to the antibody manufacturer's instructions (Cell Signaling Technology Company). […]
(§2) Target protein remaining (%) refers to the percentage of target protein remaining in cells after treatment with protein degrader compounds.
(§3) Calculation method for target protein remaining (%): Use ImageJ software to measure grayscale values of Western blot bands from drug (protein degrader)-treated samples. The grayscale value of drug-treated bands is divided by that of internal control protein bands, and the resulting quotient is normalized to obtain the relative percentage of remaining target protein after protein degrader treatment. Target protein degradation rate(%) = 1−target protein remaining(%). [formula]

[2] = target: T2, IKZF3 (Homo sapiens, UniProt Q96SW2+Q9UKT9); assay: Western-blot assay of substrate protein degradation in hPBMCs, IKZF3
T2 construct: endogenous in cells; host or cells: hPBMCs (Milecell Biotechnologies)
T2 sequence (Q9UKT9 whole entry): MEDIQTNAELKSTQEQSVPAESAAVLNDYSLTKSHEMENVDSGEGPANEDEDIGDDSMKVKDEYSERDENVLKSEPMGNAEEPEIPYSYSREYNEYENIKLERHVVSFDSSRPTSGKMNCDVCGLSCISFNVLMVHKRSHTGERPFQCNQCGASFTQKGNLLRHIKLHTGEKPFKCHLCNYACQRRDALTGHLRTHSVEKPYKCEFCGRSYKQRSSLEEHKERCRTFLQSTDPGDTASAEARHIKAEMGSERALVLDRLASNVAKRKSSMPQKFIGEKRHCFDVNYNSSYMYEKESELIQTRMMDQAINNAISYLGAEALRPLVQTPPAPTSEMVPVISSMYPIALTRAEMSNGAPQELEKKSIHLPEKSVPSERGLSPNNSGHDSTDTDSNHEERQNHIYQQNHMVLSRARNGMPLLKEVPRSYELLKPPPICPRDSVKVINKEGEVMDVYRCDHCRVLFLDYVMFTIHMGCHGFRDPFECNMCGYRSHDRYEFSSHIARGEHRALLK
T2 sequence (Q96SW2 whole entry): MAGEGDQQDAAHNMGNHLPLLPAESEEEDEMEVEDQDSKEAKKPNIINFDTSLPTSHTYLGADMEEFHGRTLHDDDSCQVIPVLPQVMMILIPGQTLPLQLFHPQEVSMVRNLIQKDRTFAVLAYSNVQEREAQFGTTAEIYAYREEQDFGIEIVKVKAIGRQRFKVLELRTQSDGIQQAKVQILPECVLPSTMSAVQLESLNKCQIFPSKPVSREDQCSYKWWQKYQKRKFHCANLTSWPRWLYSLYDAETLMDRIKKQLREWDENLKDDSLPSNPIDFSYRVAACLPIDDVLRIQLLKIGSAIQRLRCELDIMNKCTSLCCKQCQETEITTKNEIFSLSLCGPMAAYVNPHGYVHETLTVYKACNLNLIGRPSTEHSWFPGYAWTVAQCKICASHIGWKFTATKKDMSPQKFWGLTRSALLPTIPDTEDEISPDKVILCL
T2 sequence (Q16531 whole entry partner): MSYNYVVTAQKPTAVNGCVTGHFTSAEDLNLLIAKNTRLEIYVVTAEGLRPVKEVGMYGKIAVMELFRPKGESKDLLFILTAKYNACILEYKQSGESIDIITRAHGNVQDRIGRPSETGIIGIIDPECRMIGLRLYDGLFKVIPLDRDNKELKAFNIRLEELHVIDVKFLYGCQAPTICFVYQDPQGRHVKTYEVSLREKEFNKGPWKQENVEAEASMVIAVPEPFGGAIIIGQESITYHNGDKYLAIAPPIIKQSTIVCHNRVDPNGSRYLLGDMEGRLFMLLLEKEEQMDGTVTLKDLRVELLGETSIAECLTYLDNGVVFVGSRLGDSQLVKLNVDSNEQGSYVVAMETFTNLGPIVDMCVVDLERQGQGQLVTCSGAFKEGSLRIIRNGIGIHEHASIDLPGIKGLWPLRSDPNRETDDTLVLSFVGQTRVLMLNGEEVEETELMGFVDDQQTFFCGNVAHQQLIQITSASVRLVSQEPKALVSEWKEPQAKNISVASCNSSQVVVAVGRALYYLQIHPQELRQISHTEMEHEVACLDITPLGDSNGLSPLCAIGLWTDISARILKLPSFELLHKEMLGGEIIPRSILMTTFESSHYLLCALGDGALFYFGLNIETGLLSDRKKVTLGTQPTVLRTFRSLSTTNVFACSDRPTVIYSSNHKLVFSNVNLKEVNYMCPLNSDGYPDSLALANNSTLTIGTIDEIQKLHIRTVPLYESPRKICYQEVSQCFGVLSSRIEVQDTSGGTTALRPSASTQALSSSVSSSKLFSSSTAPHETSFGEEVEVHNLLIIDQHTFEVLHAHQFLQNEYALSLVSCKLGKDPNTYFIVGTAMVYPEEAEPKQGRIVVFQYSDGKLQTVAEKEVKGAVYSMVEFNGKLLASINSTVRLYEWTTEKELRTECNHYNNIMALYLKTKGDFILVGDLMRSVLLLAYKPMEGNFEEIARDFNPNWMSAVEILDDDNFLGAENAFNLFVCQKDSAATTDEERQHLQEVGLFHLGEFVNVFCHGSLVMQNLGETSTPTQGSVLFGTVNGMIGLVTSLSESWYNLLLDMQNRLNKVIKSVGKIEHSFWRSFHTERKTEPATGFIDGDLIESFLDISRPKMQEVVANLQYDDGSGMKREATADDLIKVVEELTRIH
Description: as §1, §2, §3

[3] = target: T3, GSPT1 (Homo sapiens, UniProt P15170+Q96SW2); assay: Western-blot assay of substrate protein degradation in hPBMCs, GSPT1
T3 construct: endogenous in cells; host or cells: hPBMCs (Milecell Biotechnologies)
T3 sequence (P15170 whole entry): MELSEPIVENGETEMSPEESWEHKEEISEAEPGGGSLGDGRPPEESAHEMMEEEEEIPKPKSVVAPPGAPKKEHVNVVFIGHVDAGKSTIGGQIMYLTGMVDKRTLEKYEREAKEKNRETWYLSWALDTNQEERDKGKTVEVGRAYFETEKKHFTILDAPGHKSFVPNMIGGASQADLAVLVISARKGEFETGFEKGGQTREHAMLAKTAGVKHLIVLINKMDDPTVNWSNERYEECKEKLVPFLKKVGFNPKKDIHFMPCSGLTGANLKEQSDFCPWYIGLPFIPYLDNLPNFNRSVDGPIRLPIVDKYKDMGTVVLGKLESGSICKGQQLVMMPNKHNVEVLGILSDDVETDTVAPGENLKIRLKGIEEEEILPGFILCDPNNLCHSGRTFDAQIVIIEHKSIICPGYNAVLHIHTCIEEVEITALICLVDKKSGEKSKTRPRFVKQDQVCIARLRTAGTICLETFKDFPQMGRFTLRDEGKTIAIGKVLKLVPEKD
T3 sequence (Q96SW2 whole entry): as the sequence (Q96SW2 whole entry) above
T3 sequence (Q16531 whole entry partner): as the sequence (Q16531 whole entry partner) above
Description: as §1, §2, §3

[4] = target: T4, CK1α (Homo sapiens, UniProt P48729+Q96SW2); assay: Western-blot assay of substrate protein degradation in hPBMCs, CK1α
T4 construct: endogenous in cells; host or cells: hPBMCs (Milecell Biotechnologies)
T4 sequence (P48729 whole entry): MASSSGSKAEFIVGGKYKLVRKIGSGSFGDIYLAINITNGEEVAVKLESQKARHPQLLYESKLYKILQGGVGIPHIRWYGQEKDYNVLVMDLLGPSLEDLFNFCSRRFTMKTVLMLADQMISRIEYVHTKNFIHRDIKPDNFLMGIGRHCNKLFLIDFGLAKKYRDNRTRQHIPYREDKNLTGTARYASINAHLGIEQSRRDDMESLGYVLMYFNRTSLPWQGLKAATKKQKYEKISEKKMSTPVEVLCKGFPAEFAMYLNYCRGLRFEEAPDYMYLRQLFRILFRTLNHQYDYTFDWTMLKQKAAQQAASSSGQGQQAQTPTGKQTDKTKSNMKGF
T4 sequence (Q96SW2 whole entry): as the sequence (Q96SW2 whole entry) above
T4 sequence (Q16531 whole entry partner): as the sequence (Q16531 whole entry partner) above
Description: as §1, §2, §3

[5] = target: T5, IKZF2 (Homo sapiens, UniProt Q96SW2+Q9UKS7); assay: Western-blot assay of substrate protein degradation in hPBMCs, IKZF2
T5 construct: endogenous in cells; host or cells: hPBMCs (Milecell Biotechnologies)
T5 sequence (Q9UKS7 whole entry): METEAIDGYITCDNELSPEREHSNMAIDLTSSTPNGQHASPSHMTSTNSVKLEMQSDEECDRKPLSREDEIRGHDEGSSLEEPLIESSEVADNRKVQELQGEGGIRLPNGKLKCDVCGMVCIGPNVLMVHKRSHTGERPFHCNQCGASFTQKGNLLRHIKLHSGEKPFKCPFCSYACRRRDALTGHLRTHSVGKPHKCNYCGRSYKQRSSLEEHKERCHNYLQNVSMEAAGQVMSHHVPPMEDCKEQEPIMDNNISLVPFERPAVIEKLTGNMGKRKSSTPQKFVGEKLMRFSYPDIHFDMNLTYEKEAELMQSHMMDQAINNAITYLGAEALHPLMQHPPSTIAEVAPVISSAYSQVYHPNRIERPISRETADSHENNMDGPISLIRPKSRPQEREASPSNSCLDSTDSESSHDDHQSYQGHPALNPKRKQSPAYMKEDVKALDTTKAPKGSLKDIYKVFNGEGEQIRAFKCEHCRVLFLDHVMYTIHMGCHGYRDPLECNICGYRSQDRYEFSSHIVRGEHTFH
T5 sequence (Q96SW2 whole entry): as the sequence (Q96SW2 whole entry) above
T5 sequence (Q16531 whole entry partner): as the sequence (Q16531 whole entry partner) above
Description: as §1, §2, §3

[6] = target: T6, WEE1 (Homo sapiens, UniProt P30291+Q96SW2); assay: Western-blot assay of substrate protein degradation in hPBMCs, WEE1
T6 construct: endogenous in cells; host or cells: hPBMCs (Milecell Biotechnologies)
Description: as §1, §2, §3

[7] = 50 nM and 500 nM tested (concentration behind the class not stated)
[8] = compounds tested at 50 nM and 500 nM (concentration of the table not stated)

T1 sequence (Q13422 whole entry): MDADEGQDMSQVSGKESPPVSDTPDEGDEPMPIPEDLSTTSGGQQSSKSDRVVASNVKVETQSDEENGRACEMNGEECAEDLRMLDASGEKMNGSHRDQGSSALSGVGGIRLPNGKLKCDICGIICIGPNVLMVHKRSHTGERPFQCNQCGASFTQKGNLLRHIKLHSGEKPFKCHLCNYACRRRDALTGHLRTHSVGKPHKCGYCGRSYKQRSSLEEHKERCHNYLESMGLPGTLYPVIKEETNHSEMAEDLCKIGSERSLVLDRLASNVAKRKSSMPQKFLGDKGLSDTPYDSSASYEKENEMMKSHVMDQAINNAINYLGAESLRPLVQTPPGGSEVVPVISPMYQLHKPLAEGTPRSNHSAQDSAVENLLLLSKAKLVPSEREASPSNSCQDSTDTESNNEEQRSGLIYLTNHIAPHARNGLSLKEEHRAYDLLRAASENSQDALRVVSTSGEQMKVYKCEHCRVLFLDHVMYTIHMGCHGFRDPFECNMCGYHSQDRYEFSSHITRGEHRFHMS
T1 sequence (Q96SW2 whole entry): as the sequence (Q96SW2 whole entry) above
T1 sequence (Q16531 whole entry partner): as the sequence (Q16531 whole entry partner) above

Row | SMILES | IKZF 1 substrate protein remaining % [1, 7] | IKZF3 substrate protein remaining % [2, 7] | GSPT1 substrate protein remaining % [3, 7] | CK1a substrate protein remaining % [4, 7] | IKZF2 substrate protein remaining % [5, 7] | Weel substrate protein remaining % [6, 7] | IKZF 1 substrate protein remaining % [1, 8] | IKZF3 substrate protein remaining % [2, 8] | GSPT1 substrate protein remaining % [3, 8] | CK1a substrate protein remaining % [4, 8] | IKZF2 substrate protein remaining % [5, 8] | Weel substrate protein remaining % [6, 8]
1 | O=C1CCC(N2C(=O)c3ccc(CN4CCN(c5cc(Cl)ccn5)CC4)cc3C2=O)C(=O)N1 (stereo not drawn) [GT-06525, 5-((4-(4-chloropyridin-2-yl)piperazin-1-yl)methyl)-2-(2,6-dioxopiperidin-3-yl)isoindoline-1,3-dione] | B (80%< substrate protein remaining %≤ 100%) | A (0% ≤ substrate protein remaining % ≤ 80%) | A (0% ≤ substrate protein remaining % ≤ 80%) | B (80%< substrate protein remaining %≤ 100%) | A (0% ≤ substrate protein remaining % ≤ 80%) | A (0% ≤ substrate protein remaining % ≤ 80%) |  |  |  |  |  | 
2 | O=C1CCC(N2C(=O)c3ccc(CN4CCC(c5ccc(F)cc5)CC4)cc3C2=O)C(=O)N1 (stereo not drawn) [GT-06374, 2-(2,6-dioxopiperidin-3-yl)-5-((4-(4-fluorophenyl)piperidin-1-yl)methyl)isoindoline-1,3-dione] | A (0% ≤ substrate protein remaining % ≤ 80%) | B (80%< substrate protein remaining %≤ 100%) | A (0% ≤ substrate protein remaining % ≤ 80%) | B (80%< substrate protein remaining %≤ 100%) | A (0% ≤ substrate protein remaining % ≤ 80%) | A (0% ≤ substrate protein remaining % ≤ 80%) |  |  |  |  |  | 
3 | Cc1cccc(N2CCN(Cc3ccc4c(c3)C(=O)N(C3CCC(=O)NC3=O)C4=O)CC2)c1 (stereo not drawn) [GT-06276, 2-(2,6-dioxopiperidin-3-yl)-5-((4-(m-tolyl)piperazin-1-yl)methyl)isoindoline-1,3-dione] | A (0% ≤ substrate protein remaining % ≤ 80%) | B (80%< substrate protein remaining %≤ 100%) | A (0% ≤ substrate protein remaining % ≤ 80%) | B (80%< substrate protein remaining %≤ 100%) | A (0% ≤ substrate protein remaining % ≤ 80%) | B (80%< substrate protein remaining %≤ 100%) |  |  |  |  |  | 
4 | O=C1CCC(N2C(=O)c3ccc(CN4CCN(c5cccc(Cl)n5)CC4)cc3C2=O)C(=O)N1 (stereo not drawn) [GT-06523, 5-((4-(6-chloropyridin-2-yl)piperazin-1-yl)methyl)-2-(2,6-dioxopiperidin-3-yl)isoindoline-1,3-dione] | A (0% ≤ substrate protein remaining % ≤ 80%) | B (80%< substrate protein remaining %≤ 100%) | A (0% ≤ substrate protein remaining % ≤ 80%) | B (80%< substrate protein remaining %≤ 100%) | B (80%< substrate protein remaining %≤ 100%) | B (80%< substrate protein remaining %≤ 100%) |  |  |  |  |  | 
5 | O=C1CCC(N2C(=O)c3ccc(CN4CCC(c5ccccc5)CC4)cc3C2=O)C(=O)N1 (stereo not drawn) [GT-06368, 2-(2,6-dioxopiperidin-3-yl)-5-((4-phenylpiperidin-1-yl)methyl)isoindoline-1,3-dione] | B (80%< substrate protein remaining %≤ 100%) | A (0% ≤ substrate protein remaining % ≤ 80%) | A (0% ≤ substrate protein remaining % ≤ 80%) | A (0% ≤ substrate protein remaining % ≤ 80%) | A (0% ≤ substrate protein remaining % ≤ 80%) | A (0% ≤ substrate protein remaining % ≤ 80%) |  |  |  |  |  | 
6 | Cc1nc(N2CCN(Cc3ccc4c(c3)C(=O)N(C3CCC(=O)NC3=O)C4=O)CC2)c2ccsc2n1 (stereo not drawn) [GT-06347, 2-(2,6-dioxopiperidin-3-yl)-5-((4-(2-methylthieno[2,3-d]pyrimidin-4-yl)piperazin-1-yl)methyl)isoindoline-1,3-dione] | A (0% ≤ substrate protein remaining % ≤ 80%) | A (0% ≤ substrate protein remaining % ≤ 80%) | B (80%< substrate protein remaining %≤ 100%) | B (80%< substrate protein remaining %≤ 100%) | A (0% ≤ substrate protein remaining % ≤ 80%) | B (80%< substrate protein remaining %≤ 100%) |  |  |  |  |  | 
7 | COc1ccccc1N1CCN(Cc2ccc3c(c2)C(=O)N(C2CCC(=O)NC2=O)C3=O)CC1 (stereo not drawn) [GT-06287, 2-(2,6-dioxopiperidin-3-yl)-5-((4-(2-methoxyphenyl)piperazin-1-yl)methyl)isoindoline-1,3-dione] | B (80%< substrate protein remaining %≤ 100%) | B (80%< substrate protein remaining %≤ 100%) | A (0% ≤ substrate protein remaining % ≤ 80%) | B (80%< substrate protein remaining %≤ 100%) | B (80%< substrate protein remaining %≤ 100%) | B (80%< substrate protein remaining %≤ 100%) |  |  |  |  |  | 
8 | O=C1CCC(N2C(=O)c3ccc(CN4CCN(c5cccnn5)CC4)cc3C2=O)C(=O)N1 (stereo not drawn) [GT-07844, 2-(2,6-dioxopiperidin-3-yl)-5-((4-(pyridazin-3-yl)piperazin-1-yl)methyl)isoindoline-1,3-dione] | A (0% ≤ substrate protein remaining % ≤ 80%) | A (0% ≤ substrate protein remaining % ≤ 80%) | B (80%< substrate protein remaining %≤ 100%) | B (80%< substrate protein remaining %≤ 100%) | B (80%< substrate protein remaining %≤ 100%) | B (80%< substrate protein remaining %≤ 100%) |  |  |  |  |  | 
9 | O=C1CCC(N2C(=O)c3ccc(CN4CCN(c5ccc(F)cn5)CC4)cc3C2=O)C(=O)N1 (stereo not drawn) [GT-06528, 2-(2,6-dioxopiperidin-3-yl)-5-((4-(5-fluoropyridin-2-yl)piperazin-1-yl)methyl)isoindoline-1,3-dione] | B (80%< substrate protein remaining %≤ 100%) | A (0% ≤ substrate protein remaining % ≤ 80%) | A (0% ≤ substrate protein remaining % ≤ 80%) | B (80%< substrate protein remaining %≤ 100%) | A (0% ≤ substrate protein remaining % ≤ 80%) | A (0% ≤ substrate protein remaining % ≤ 80%) |  |  |  |  |  | 
10 | O=C1CCC(N2C(=O)c3ccc(CN4CC=C(c5cccc(F)c5Cl)CC4)cc3C2=O)C(=O)N1 (stereo not drawn) [GT-06429, 5-((4-(2-chloro-3-fluorophenyl)-3,6-dihydropyridin-1(2H)-yl)methyl)-2-(2,6-dioxopiperidin-3-yl)isoindoline-1,3-dione] | A (0% ≤ substrate protein remaining % ≤ 80%) | A (0% ≤ substrate protein remaining % ≤ 80%) | A (0% ≤ substrate protein remaining % ≤ 80%) | A (0% ≤ substrate protein remaining % ≤ 80%) | A (0% ≤ substrate protein remaining % ≤ 80%) | A (0% ≤ substrate protein remaining % ≤ 80%) |  |  |  |  |  | 
11 | O=C1CCC(N2C(=O)c3ccc(CN4CCN(c5cc(F)cc(F)c5)CC4)cc3C2=O)C(=O)N1 (stereo not drawn) [GT-06365, 5-((4-(3,5-difluorophenyl)piperazin-1-yl)methyl)-2-(2,6-dioxopiperidin-3-yl)isoindoline-1,3-dione] | B (80%< substrate protein remaining %≤ 100%) | B (80%< substrate protein remaining %≤ 100%) | A (0% ≤ substrate protein remaining % ≤ 80%) | B (80%< substrate protein remaining %≤ 100%) | B (80%< substrate protein remaining %≤ 100%) | B (80%< substrate protein remaining %≤ 100%) |  |  |  |  |  | 
12 | O=C1CCC(N2C(=O)c3ccc(CN4CCC(N5CCCc6cc(F)ccc65)CC4)cc3C2=O)C(=O)N1 (stereo not drawn) [GT-06234, 2-(2,6-dioxopiperidin-3-yl)-5-((4-(6-fluoro-3,4-dihydroquinolin-1(2H)-yl)piperidin-1-yl)methyl)isoindoline-1,3-dione] |  |  |  |  |  |  | B (80%< substrate protein remaining %≤ 100%) | B (80%< substrate protein remaining %≤ 100%) | A (0% ≤ substrate protein remaining % ≤ 80%) | B (80%< substrate protein remaining %≤ 100%) | B (80%< substrate protein remaining %≤ 100%) | B (80%< substrate protein remaining %≤ 100%)
